Broadly, the IC90 is the concentration needed for an effect of 90%. The term IC50 denotes the concentration that gives 50% inhibition.

One assay addresses T1, recombinant human MAO-A (Homo sapiens, UniProt P21397).
T1 sequence (P21397 1-527): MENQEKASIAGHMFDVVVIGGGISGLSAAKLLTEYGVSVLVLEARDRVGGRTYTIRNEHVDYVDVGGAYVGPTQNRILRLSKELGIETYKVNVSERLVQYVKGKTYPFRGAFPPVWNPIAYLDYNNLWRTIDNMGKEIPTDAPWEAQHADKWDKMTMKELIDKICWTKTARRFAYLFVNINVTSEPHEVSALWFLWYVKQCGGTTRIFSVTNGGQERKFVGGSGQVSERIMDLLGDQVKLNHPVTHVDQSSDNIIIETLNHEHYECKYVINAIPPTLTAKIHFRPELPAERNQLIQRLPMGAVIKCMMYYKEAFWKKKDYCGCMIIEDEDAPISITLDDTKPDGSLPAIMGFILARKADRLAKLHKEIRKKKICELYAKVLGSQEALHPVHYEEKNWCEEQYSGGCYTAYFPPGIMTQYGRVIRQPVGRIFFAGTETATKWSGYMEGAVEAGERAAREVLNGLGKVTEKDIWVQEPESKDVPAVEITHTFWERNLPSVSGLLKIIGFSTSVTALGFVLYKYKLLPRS
As to the kind of experiment: Cell-free Fluorescent Monoamine Oxidase A&B Detection Assay, MAO-A. The format is biochemical. As for the experimental part: (§1) The assay was repeated to confirm data.
(§2) MAO B specific inhibitory activity and selectivity over MAO A is assayed using a commercial kit [Fluoro MAO A and B detection kit (Cell Technology Inc™)]. This kit uses a non-fluorescent detection reagent to measure H2O2 released from the conversion of an MAO A and MAO B substrate specific to its aldehyde. Furthermore, H2O2 oxidizes the detection reagent in a 1:1 stoichiometry to produce a fluorescent product (resorufin). […] This information is then provided to the medicinal chemists to help direct synthesis of subsequent iterations.

A further assay deals with T2, recombinant human MAO-B (Homo sapiens, UniProt P27338).
T2 sequence (P27338 1-520): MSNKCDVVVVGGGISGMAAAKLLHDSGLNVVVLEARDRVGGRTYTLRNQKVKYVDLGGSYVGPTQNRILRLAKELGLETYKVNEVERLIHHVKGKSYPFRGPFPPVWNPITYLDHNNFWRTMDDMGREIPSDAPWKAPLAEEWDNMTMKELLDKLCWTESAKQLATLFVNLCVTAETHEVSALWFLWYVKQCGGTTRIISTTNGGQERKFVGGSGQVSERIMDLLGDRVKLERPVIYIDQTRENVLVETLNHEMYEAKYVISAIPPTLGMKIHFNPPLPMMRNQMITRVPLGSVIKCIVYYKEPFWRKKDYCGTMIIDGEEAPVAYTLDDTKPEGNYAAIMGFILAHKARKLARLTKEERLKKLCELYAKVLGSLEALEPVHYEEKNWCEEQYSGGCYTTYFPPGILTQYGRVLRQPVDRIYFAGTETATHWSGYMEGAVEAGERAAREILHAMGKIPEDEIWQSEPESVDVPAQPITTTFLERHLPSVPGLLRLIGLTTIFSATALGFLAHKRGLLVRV
As to the kind of experiment: Cell-free Fluorescent Monoamine Oxidase A&B Detection Assay, MAO-B. It counts as biochemical. As for the experimental part: as §1, §2

[1] abbreviates: cell-free, recombinant human MAO-A.

Where a name gives a salt, the structure may show the parent alone. Read-outs that look alike come from different tables or passages of the source.

Take `O=C(O)c1coc(Cc2ccc(OCc3ccccc3)cc2)n1` [PS-AD0031]: the “IC50 MAO-A (μM)” value at recombinant human MAO-A (setting [1]) is given as “Does not”. In addition, the “IC90 MAO-B (μM)” value on recombinant human MAO-B was “Does not”.
In the case of `C[C@H](Cc1ccc(OCc2cc(Cl)ccc2Cl)cc1)N(C)CC(=O)O.Cl` [PS-AD0064, (R)—N-(1-(4-((2,5-dichlorobenzyl)oxy)phenyl)propan-2-yl)-N-methylglycine hydrochloride], the “IC50 MAO-A (μM)” value at recombinant human MAO-A (setting [1]) was “Does not”. The concentration for an effect of 90% (IC90) on recombinant human MAO-B is 25.8 µM. For the same compound, the 50% inhibitory concentration (IC50) on recombinant human MAO-B (read-out: IC50 MAO-B) is 1.27 µM.
The corresponding values for `C[C@H](Cc1ccc(OCc2ccc(C(=O)O)cc2)cc1)N(C)CC(=O)O.Cl` [PS-AD0065 B, (R)-4-((4-(2-((carboxymethyl)(methyl)amino)propyl)phenoxy)methyl)benzoic acid hydrochloride] are “Does not”, 149 µM and 10 µM.
The corresponding values for `C[C@H](Cc1ccc(OCc2ccc(C#N)cc2)cc1)N(C)CC(=O)O.Cl` [PS-AD0065, (R)—N-(1-(4-((4-cyanobenzyl)oxy)phenyl)propan-2-yl)-N-methylglycine hydrochloride] are “Does not”, 81.1 µM and 3.28 µM.
Take `C[C@H](Cc1ccc(OCc2ccncc2)cc1)N(C)CC(=O)O.Cl.Cl` [PS-AD0068, (R)—N-methyl-N-(1-(4-(pyridin-4-ylmethoxy)phenyl)propan-2-yl)glycine hydrochloride]: at recombinant human MAO-A (setting [1]), the “IC50 MAO-A (μM)” value is on record as “Does not”. Besides, the 90% effect concentration (IC90) at recombinant human MAO-B is 506 µM. Also, on recombinant human MAO-B (read-out: IC50 MAO-B), the IC50 was 20 µM.
The corresponding values for `CN(CC(=O)O)[C@H](CCl)Cc1ccc(OCc2ccccc2)cc1` [PS-AD0095, (S)—N-(1-(4-(benzyloxy)phenyl)-3-chloropropan-2-yl)-N-methylglycine] are “Does not”, 13.4 µM and 1.4 µM.
On the same counts, the results for `CN(CC(=O)O)[C@H](CCO)Cc1ccc(OCc2ccccc2)cc1.Cl` [PS-AD0179, (S)—N-(1-(4-(benzyloxy)phenyl)-4-hydroxybutan-2-yl)-N-methylglycine] are “Does not”, 167 µM and 7.82 µM.
With `CN(CC(=O)O)[C@H](CC#N)Cc1ccc(OCc2ccccc2)cc1.Cl` [PS-AD0186, (S)—N-(1-(4-(benzyloxy)phenyl)-3-cyanopropan-2-yl)-N-methylglycine], at recombinant human MAO-A (setting [1]), the “IC50 MAO-A (μM)” value is given as “Does not”. Also, the concentration for an effect of 90% (IC90) at recombinant human MAO-B turned out to be 4.44 µM. Further, on recombinant human MAO-B (read-out: IC50 MAO-B), the half-inhibitory concentration (IC50) worked out at 0.56 µM.
With `C[C@H](Cc1ccc(OCc2cnc3ncccn23)cc1)N(C)CC(=O)O.Cl` [PS-AD0223], at recombinant human MAO-A (setting [1]), the “IC50 MAO-A (μM)” value is “Does not”. In addition, on recombinant human MAO-B, the “IC90 MAO-B (μM)” value was “Does not”.
On to `C[C@H](Cc1ccc(Oc2ccccc2)cc1)N(C)CC(=O)O` [PS-RG0008, N—((R)-(1-(4-(phenoxy)phenyl)propan-2-yl)(methyl))glycine hydrochloride], for which the “IC50 MAO-A (μM)” value at recombinant human MAO-A (setting [1]) was “Does not”. The IC90 on recombinant human MAO-B was 331 µM. Further, the concentration for half-maximal inhibition (IC50) at recombinant human MAO-B (read-out: IC50 MAO-B) came out at 69.2 µM.
`CN(CC(=O)O)Cc1ccccc1.Cl` [PS-RG0019]: the “IC50 MAO-A (μM)” value on recombinant human MAO-A (setting [1]) is “Does not”. Besides, the “IC90 MAO-B (μM)” value on recombinant human MAO-B is listed as “Does not”.
Turning to `CN(CCc1ccccc1)CC(=O)O.Cl` [PS-RG0020], the “IC50 MAO-A (μM)” value on recombinant human MAO-A (setting [1]) is “Does not”. Moreover, the “IC90 MAO-B (μM)” value on recombinant human MAO-B is “Does not”.
In the case of `C[C@H](Cc1ccc(OCc2ccccc2)cc1)N(C)CC(=O)O` [PS-RG0031A, N—((R)-(1-(4-(benzyloxy)phenyl)propan-2-yl)(methyl))glycine hydrochloride], at recombinant human MAO-A (setting [1]), the “IC50 MAO-A (μM)” value is listed as “Does not”. Also, the IC90 at recombinant human MAO-B is 30.5 µM. Further, the IC50 at recombinant human MAO-B (read-out: IC50 MAO-B) was 0.908 µM.
In the case of `CN(CCc1ccc(Oc2ccccc2)cc1)CC(=O)O.Cl` [PS-RG0058], the “IC50 MAO-A (μM)” value at recombinant human MAO-A (setting [1]) is recorded as “Does not”. Further, the “IC90 MAO-B (μM)” value on recombinant human MAO-B is “Does not”.
In the case of `C#CCN(C)[C@H](C)Cc1ccc(OCc2ccccc2)cc1` [PS-RG0061], the half-maximal inhibitory concentration (IC50) at recombinant human MAO-A (IC50 MAO-A (μM), cell-free, recombinant human MAO-A) was found to be 0.163 µM; at recombinant human MAO-B (read-out: IC50 MAO-B), 0.00458 µM. The IC90 at recombinant human MAO-A (read-out: IC90 MAO-A (μM)) was 1.05 µM; on recombinant human MAO-B, 0.023 µM.
As for `CN(CCc1ccc(OCc2ccccc2)cc1)CC(=O)O.Cl` [PS-RG0064, N,N-(4-(Benzyloxy)phenethyl)(methyl)glycine hydrochloride], the “IC50 MAO-A (μM)” value at recombinant human MAO-A (setting [1]) is reported as “Does not”. Moreover, the IC90 at recombinant human MAO-B amounted to 252 µM. The IC50 on recombinant human MAO-B (read-out: IC50 MAO-B) stood at 7.33 µM.
For the compound `C#CCN(C)CCc1ccccc1` [PS-RG0070], the half-inhibitory concentration (IC50) on recombinant human MAO-A (cell-free, recombinant human MAO-A, read-out: IC50 MAO-A) was found to be 12.5 µM; on recombinant human MAO-B (IC50 MAO-B (μM)), 0.0107 µM. Also, the IC90 at recombinant human MAO-A (cell-free, recombinant human MAO-A, read-out: IC90 MAO-A) is 126 µM; at recombinant human MAO-B, 0.0306 µM.
As for `CN(CC(=O)O)C(=O)C=C1COc2cc(Oc3ccccc3)ccc21` [PS-RG0080], the “IC50 MAO-A (μM)” value at recombinant human MAO-A (setting [1]) is on record as “Does not”. Besides, at recombinant human MAO-B, the “IC90 MAO-B (μM)” value is “Does not”.
Turning to `CN(CC(=O)O)Cc1cc(=O)oc2cc(Oc3ccccc3)ccc12.Cl` [PS-RG0097], on recombinant human MAO-A (setting [1]), the “IC50 MAO-A (μM)” value was “Does not”. Also, the “IC90 MAO-B (μM)” value on recombinant human MAO-B is “Does not”.
Regarding `CN(CC(=O)O)Cc1cc(=O)oc2cc(OCc3ccccc3)ccc12.Cl` [PS-RG0098, N-((7-(benzyloxy)-2-oxo-2H-chromen-4-yl)methyl)-N-methylglycine hydrochloride], at recombinant human MAO-A (setting [1]), the “IC50 MAO-A (μM)” value is given as “Does not”. Also, the 90% effect concentration (IC90) on recombinant human MAO-B worked out at 4.1 µM. For the same compound, the IC50 at recombinant human MAO-B (read-out: IC50 MAO-B) was 0.799 µM.
On the same counts, the results for `C[C@H](Cc1ccc(OCc2ccccc2Cl)cc1)N(C)CC(=O)O` [PS-RG0121, N—((R)-(1-(4-(2-chlorobenzyloxy)phenyl)propan-2-yl)(methyl))glycine hydrochloride] are “Does not”, 8.13 µM and 0.668 µM.
On the same counts, the results for `COC(=O)[C@H](Cc1ccc(OCc2cccc(Cl)c2)cc1)N(C)CC(=O)O` [PS-RG0122, N-Carboxymethyl-N-methyl-O-3-chlorobenzyloxytyrosine methyl ester hydrochloride] are “Does not”, 19.1 µM and 1.43 µM.
On the same counts, the results for `COC(=O)[C@H](Cc1ccc(OCc2ccccc2)cc1)N(C)CC(=O)O.Cl` [PS-RG0123, N-Carboxymethyl)-N-(methyl-O-benzyloxytyrosine methyl ester hydrochloride] are “Does not”, 354 µM and 9.95 µM.
Consider `C[C@H](Cc1ccc(OCc2ccccc2C#N)cc1)N(C)CC(=O)O.Cl` [PS-RG0171, (R)—N-(1-(4-((2-cyanobenzyl)oxy)phenyl)propan-2-yl)-N-methylglycine hydrochloride], for which the “IC50 MAO-A (μM)” value on recombinant human MAO-A (setting [1]) is given as “Does not”. Further, the IC90 at recombinant human MAO-B came out at 1080 µM. Besides, the IC50 on recombinant human MAO-B (read-out: IC50 MAO-B) stood at 13 µM.
In the case of `C[C@H](Cc1ccc(OCc2cccc(C#N)c2)cc1)N(C)CC(=O)O.Cl` [PS-RG0172, (R)—N-(1-(4-((3-cyanobenzyl)oxy)phenyl)propan-2-yl)-N-methylglycine hydrochloride], on recombinant human MAO-A (setting [1]), the “IC50 MAO-A (μM)” value was “Does not”. Moreover, the IC90 on recombinant human MAO-B turned out to be 1840 µM. In addition, the IC50 on recombinant human MAO-B (read-out: IC50 MAO-B) was 19.7 µM.
On to `C[C@H](Cc1ccc(OCc2cccc(F)c2)cc1)N(C)CC(=O)O.Cl` [PS-RG0173, (R)—N-(1-(4-((3-fluorobenzyl)oxy)phenyl)propan-2-yl)-N-methylglycine hydrochloride], for which the “IC50 MAO-A (μM)” value on recombinant human MAO-A (setting [1]) was “Does not”. The IC90 at recombinant human MAO-B was determined as 13.5 µM. Also, the IC50 on recombinant human MAO-B (read-out: IC50 MAO-B) amounted to 0.785 µM.

(Values after patent US10196345B2, “MAO-B selective inhibitor compounds, pharmaceutical compositions thereof and uses thereof” (The University of British Columbia, priority 2013, dated 2019).)
